# Test results as given in ChEMBL document CHEMBL1629525, “Synthesis and characterization of 1,3-dihydro-benzo[b][1,4]diazepin-2-one derivatives: Part 4. In vivo active potent and selective non-competitive metabotropic glutamate receptor 2/3 antagonists” (Bioorg Med Chem Lett, 2010).
# Activity calls are given as the source filed them. The calls are words filed in the database; no cut-off is given here.
# Columns and labels:
# [1] = molecular target: T1, Metabotropic glutamate receptor 2 (Rattus norvegicus, UniProt P31421); test: Partial displacement of [3H]LY354740 from recombinant rat mGluR2
# T1 sequence (P31421 whole entry): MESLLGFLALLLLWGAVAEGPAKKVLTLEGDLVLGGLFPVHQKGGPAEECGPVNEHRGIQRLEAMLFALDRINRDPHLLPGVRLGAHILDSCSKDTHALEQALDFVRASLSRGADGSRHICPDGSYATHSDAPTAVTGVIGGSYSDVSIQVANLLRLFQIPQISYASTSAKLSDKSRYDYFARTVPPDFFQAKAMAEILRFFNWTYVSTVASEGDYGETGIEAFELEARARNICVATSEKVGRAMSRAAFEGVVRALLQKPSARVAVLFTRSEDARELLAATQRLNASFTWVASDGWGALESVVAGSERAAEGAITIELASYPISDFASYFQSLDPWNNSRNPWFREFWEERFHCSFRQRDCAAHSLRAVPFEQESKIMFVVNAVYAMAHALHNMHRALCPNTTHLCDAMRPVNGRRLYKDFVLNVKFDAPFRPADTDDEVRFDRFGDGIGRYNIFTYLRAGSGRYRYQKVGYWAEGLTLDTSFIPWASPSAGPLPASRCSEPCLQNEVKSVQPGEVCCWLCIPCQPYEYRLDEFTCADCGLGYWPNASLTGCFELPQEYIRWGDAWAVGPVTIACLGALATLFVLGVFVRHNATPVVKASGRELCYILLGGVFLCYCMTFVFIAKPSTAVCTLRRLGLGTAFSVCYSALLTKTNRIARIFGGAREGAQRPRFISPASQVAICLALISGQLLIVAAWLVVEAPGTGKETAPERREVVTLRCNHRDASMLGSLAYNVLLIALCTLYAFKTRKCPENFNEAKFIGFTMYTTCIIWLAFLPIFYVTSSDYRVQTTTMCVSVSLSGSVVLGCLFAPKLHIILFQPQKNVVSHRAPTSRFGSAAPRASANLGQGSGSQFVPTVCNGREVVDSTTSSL
# [2] = molecular target: T1, Metabotropic glutamate receptor 2; test: Antagonist activity at recombinant rat mGluR2 expressed in forskolin-stimulated CHO cells assessed as inhibition of (1S,3R)-ACPD induced cAMP production; assay type: functional, cell-based
# [3] = molecular target: Metabotropic glutamate receptor 2 (Homo sapiens, UniProt Q14416); test: Antagonist activity at human mGluR2 receptor expressed in CHO cells assessed as inhibition of GIRK current; assay type: functional, cell-based
# Sequence of Metabotropic glutamate receptor 2 (Homo sapiens, UniProt Q14416) (Q14416 whole entry): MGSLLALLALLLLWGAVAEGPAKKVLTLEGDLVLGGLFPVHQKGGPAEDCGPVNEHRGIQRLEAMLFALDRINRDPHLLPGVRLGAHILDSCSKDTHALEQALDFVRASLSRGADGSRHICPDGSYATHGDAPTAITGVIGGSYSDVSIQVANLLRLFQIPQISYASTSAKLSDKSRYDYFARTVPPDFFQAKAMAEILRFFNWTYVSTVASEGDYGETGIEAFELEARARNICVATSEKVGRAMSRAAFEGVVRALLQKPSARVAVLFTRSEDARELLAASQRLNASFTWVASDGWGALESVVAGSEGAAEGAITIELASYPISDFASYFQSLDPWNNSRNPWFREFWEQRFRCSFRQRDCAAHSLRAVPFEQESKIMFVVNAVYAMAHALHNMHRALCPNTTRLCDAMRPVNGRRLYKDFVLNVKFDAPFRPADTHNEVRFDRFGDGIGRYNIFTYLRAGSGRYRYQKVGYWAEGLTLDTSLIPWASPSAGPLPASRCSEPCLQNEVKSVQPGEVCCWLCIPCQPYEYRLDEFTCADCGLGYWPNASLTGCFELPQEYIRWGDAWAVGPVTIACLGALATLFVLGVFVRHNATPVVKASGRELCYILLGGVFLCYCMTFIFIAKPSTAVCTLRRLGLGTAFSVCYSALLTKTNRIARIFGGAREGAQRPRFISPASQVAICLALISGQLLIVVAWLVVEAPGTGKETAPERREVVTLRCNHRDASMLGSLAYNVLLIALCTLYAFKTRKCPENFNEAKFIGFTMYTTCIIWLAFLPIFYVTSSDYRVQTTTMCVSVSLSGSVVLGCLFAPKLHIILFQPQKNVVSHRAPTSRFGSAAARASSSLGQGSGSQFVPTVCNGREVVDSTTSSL
# [4] = molecular target: Metabotropic glutamate receptor 3 (Rattus norvegicus, UniProt P31422); test: Antagonist activity at rat mGluR3 receptor expressed in CHO cells assessed as inhibition of GIRK current; assay type: functional, cell-based
# Sequence of Metabotropic glutamate receptor 3 (P31422 whole entry): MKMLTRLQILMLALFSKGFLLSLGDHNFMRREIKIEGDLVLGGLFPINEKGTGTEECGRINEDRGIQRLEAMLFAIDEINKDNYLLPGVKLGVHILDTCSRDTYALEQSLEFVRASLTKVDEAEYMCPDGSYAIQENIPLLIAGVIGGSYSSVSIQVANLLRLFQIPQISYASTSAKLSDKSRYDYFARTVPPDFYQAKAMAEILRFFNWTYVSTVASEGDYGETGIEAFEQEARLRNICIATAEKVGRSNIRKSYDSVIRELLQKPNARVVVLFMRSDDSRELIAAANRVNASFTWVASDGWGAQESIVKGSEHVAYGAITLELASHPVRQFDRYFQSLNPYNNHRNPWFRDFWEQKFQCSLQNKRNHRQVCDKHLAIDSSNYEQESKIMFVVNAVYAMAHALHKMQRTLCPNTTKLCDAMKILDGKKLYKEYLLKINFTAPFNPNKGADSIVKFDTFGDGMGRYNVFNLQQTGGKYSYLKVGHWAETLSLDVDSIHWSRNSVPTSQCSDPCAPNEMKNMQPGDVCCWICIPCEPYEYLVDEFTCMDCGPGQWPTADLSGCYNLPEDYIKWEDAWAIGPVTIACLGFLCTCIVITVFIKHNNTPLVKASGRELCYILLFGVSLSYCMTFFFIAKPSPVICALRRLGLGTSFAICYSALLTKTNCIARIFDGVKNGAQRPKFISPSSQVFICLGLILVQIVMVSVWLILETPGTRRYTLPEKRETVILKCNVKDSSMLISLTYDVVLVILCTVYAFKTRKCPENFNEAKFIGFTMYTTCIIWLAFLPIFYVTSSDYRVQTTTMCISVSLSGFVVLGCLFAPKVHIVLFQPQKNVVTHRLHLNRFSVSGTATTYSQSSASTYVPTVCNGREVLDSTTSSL
# [5] = molecular target: T1, Metabotropic glutamate receptor 2; test: Antagonist activity at rat mGluR2 receptor expressed in CHO cells assessed as inhibition of GIRK current; assay type: functional, cell-based
# [6] = molecular target: Cytochrome P450 3A4 (Homo sapiens, UniProt P08684); test: Inhibition of CYP3A4; assay type: ADME
# Sequence of Cytochrome P450 3A4 (P08684 whole entry): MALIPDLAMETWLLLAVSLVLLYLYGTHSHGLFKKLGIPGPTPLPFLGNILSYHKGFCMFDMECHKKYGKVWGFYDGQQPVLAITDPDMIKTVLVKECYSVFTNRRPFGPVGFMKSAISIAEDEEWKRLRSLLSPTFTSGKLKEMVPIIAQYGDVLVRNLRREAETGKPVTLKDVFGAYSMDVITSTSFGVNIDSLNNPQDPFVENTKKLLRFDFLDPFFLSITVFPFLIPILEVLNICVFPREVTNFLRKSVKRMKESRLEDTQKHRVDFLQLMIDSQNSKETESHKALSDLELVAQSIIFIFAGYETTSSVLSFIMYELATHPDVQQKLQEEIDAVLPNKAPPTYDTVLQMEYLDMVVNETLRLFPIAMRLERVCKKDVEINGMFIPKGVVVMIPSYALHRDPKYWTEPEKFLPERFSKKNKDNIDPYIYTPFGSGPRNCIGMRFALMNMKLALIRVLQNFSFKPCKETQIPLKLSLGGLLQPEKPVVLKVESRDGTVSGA
# [7] = Thermodynamic solubility of the compound at pH 3; assay type: physicochemical; conditions: buffer
# [8] = test system: Liver microsomes; test: Clearance in rat liver microsomes; assay type: ADME, Microsome
# [9] = Half life in rat at 2.5 mg/kg, iv; assay type: ADME, organism-based; set-up: dose 2.5 mg/kg, route intravenous; conditions: in vivo
# [10] = Volume of dustribution at steady state in rat at 2.5 mg/kg, iv; assay type: ADME, organism-based; set-up: dose 2.5 mg/kg, route intravenous; conditions: in vivo, read-out: Vdss
# [11] = Clearance in rat at 2.5 mg/kg, iv; assay type: ADME, organism-based; set-up: dose 2.5 mg/kg, route intravenous; conditions: in vivo
# [12] = Oral bioavailability in rat at 10 mg/kg, po; assay type: ADME, organism-based; conditions: in vivo
# [13] = Ratio of drug level in brain to plasma in rat; assay type: ADME; conditions: brain and plasma
# [14] = test system: Rattus norvegicus; test: Agonist activity at rat mGluR2 assessed as decrease in spontaneous locomotor activity at 10 mg/kg, sc after 30 mins; assay type: functional, organism-based; set-up: dose 10 mg/kg
# [15] = test system: Rattus norvegicus; test: Agonist activity at rat mGluR3 assessed as decrease in spontaneous locomotor activity at 10 mg/kg, sc after 30 mins; assay type: functional, organism-based; set-up: dose 10 mg/kg
# [16] = test system: Rattus norvegicus; test: Antagonist activity at rat mGluR2 assessed as inhibition of LY354740-induced hypoactivity at 10 mg/kg, po; assay type: functional, organism-based; set-up: dose 10 mg/kg
# [17] = test system: Rattus norvegicus; test: Antagonist activity at rat mGluR3 assessed as inhibition of LY354740-induced hypoactivity at 10 mg/kg, po; assay type: functional, organism-based; set-up: dose 10 mg/kg
# [18] = organism: Rattus norvegicus; test: Induction of working memory impairment in rat by DMTP test; assay type: functional, organism-based
# [19] = organism: Rattus norvegicus; test: Amnesic activity in rat assessed as missed trials by DMTP test; assay type: functional, organism-based
# [20] = organism: Rattus norvegicus; test: Amnesic activity in rat assessed as latency to response by DMTP test; assay type: functional, organism-based
# [21] = test system: Rattus norvegicus; test: Antiamnesic activity in rat assessed as partial inhibition of LY354740-induced impairment of working memory at 3 mg/kg, po by DMTP test; assay type: functional, organism-based; set-up: dose 3 mg/kg
# [22] = organism: Rattus norvegicus; test: Antiamnesic activity in rat assessed as inhibition of LY354740-induced impairment of working memory by DMTP test; assay type: functional, organism-based
# [23] = test system: Rhesus monkey; test: Induction of working memory impairment in Rhesus monkey by DMTP test; assay type: functional, organism-based; conditions: Macaca mulatta
# [24] = organism: Homo sapiens; test: Induction of cognitive impairment in human; assay type: functional, organism-based
# [25] = test system: Rattus norvegicus; test: Antiamnesic activity in rat assessed as partial reversal of scopolamine-induced impairment of working memory at 3 mg/kg, po by DMTP test; assay type: functional, organism-based; set-up: dose 3 mg/kg
# [26] = test system: Rattus norvegicus; test: Antiamnesic activity in rat assessed as partial reversal of scopolamine-induced impairment of working memory at 0.06 mg/kg, sc by DMTP test; assay type: functional, organism-based; set-up: dose 0.06 mg/kg
# [27] = test system: Rattus norvegicus; test: Neurotoxicity in rat assessed as antidepressant-like activity at 1 mg/kg after 35 to 180 mins, po; assay type: toxicity, organism-based; set-up: dose 1 mg/kg, route oral; conditions: in vivo
# [28] = test system: Rattus norvegicus; test: Neurotoxicity in rat assessed as locomotor activity upto 30 mg/kg, po by rotarod test; assay type: toxicity, organism-based; set-up: dose 30 mg/kg, route oral; conditions: in vivo
# [29] = test system: Rattus norvegicus; test: Neurotoxicity in rat assessed as effect on grip strength upto 30 mg/kg, po; assay type: toxicity, organism-based; set-up: dose 30 mg/kg, route oral; conditions: in vivo
# [30] = test system: Rattus norvegicus; test: Neurotoxicity in rat assessed as effect on spontaneous locomotor activity upto 30 mg/kg, po; assay type: toxicity, organism-based; set-up: dose 30 mg/kg, route oral; conditions: in vivo
# [31] = test system: Rattus norvegicus; test: Antiamnesic activity in rat assessed as partial inhibition of LY354740-induced impairment of working memory at 10 mg/kg, po by DMTP test; assay type: functional, organism-based; set-up: dose 10 mg/kg
structure (smiles),measurement,setting,value
Cc1cc2c(cc1C(F)(F)F)NC(=O)CC(c1cccc(-n3cncn3)c1)=N2,IC50,[1],8 nM
same,IC50,[2],75 nM
Cc1cc(-c2cccc(C3=Nc4cc(C)c(C(F)(F)F)cc4NC(=O)C3)c2)cc(C2CC2)n1,IC50,[1],2 nM
same,IC50,[2],4 nM
Cc1cc2c(cc1C(F)(F)F)NC(=O)CC(c1cccc(-c3ccc(C(C)C)nc3)c1)=N2,IC50,[1],10 nM
same,IC50,[2],10 nM
Cc1cc(-c2cccc(C3=Nc4cc(C)c(C(F)(F)F)cc4NC(=O)C3)c2)on1,IC50,[1],5 nM
same,IC50,[2],9 nM
Cc1cc2c(cc1C(F)(F)F)NC(=O)CC(c1cccc(-c3cnccn3)c1)=N2,IC50,[1],20 nM
same,IC50,[2],16 nM
O=C1CC(c2cccc(-c3ccncc3)c2)=Nc2ccc(Cl)cc2N1,IC50,[1],8 nM
same,IC50,[2],3 nM
same,IC50,[3],10 nM
Cc1cc2c(cc1C(F)(F)F)NC(=O)CC(c1cccc(-c3ccnnc3)c1)=N2,IC50,[1],18 nM
same,IC50,[2],72 nM
Cc1cc2c(cc1C(F)(F)F)NC(=O)CC(c1cccc(-c3ccnc(C4CC4)c3)c1)=N2,IC50,[1],10 nM
same,IC50,[2],6 nM
Cc1cc(-c2cccc(C3=Nc4ccc(C(F)(F)F)cc4NC(=O)C3)c2)ccn1,IC50,[1],18 nM
same,IC50,[2],36 nM
same,IC50,[4],17 nM
same,IC50,[3],25 nM
Cc1cc2c(cc1C(F)(F)F)NC(=O)CC(c1cccc(-c3ccnc(Cc4ccccc4)c3)c1)=N2,IC50,[1],16 nM
same,IC50,[2],5 nM
Cc1cc2c(cc1C(F)(F)F)NC(=O)CC(c1cccc(-c3ccncn3)c1)=N2,IC50,[1],6 nM
same,IC50,[2],50 nM
O=C1CC(c2cccc(-n3ccnn3)c2)=Nc2ccc(-c3ccccc3F)cc2N1,IC50,[1],12 nM
same,IC50,[2],27 nM
same,IC50,[5],11 nM
same,IC50,[4],33 nM
Cc1cc(-c2cccc(C3=Nc4cc(C)c(C(F)(F)F)cc4NC(=O)C3)c2)cc(C)n1,IC50,[1],2 nM
same,IC50,[2],3 nM
same,IC50,[6],4800 nM
same,solubility thermodynamic,[7],64 µg/mL
same,CL,[8],4.7 mL/kg/min
same,half-life,[9],768 min
same,Vd,[10],5.8 L/kg
same,clearance,[11],5.7 mL/min/kg
same,bioavailability,[12],52%
same,Kp,[13],1.4
same,Activity,[14],Dose-dependent effect
same,Activity,[15],Dose-dependent effect
same,Activity,[16],Active
same,Activity,[17],Active
same,IC50,[5],< 10 nM
same,IC50,[4],< 10 nM
same,IC50,[3],14 nM
same,Activity,[18],Dose-dependent effect
same,Activity,[19],Dose-dependent effect
same,Activity,[20],Dose-dependent effect
same,Activity,[21],Dose-dependent effect
same,Activity,[22],Active
same,Activity,[23],Active
same,Activity,[24],Active
same,Activity,[25],Active
same,Activity,[26],Active
same,Activity,[27],Toxic
same,Activity,[28],Non-toxic
same,Activity,[29],Non-toxic
same,Activity,[30],Non-toxic
same,Activity,[31],Active
CCc1cc(-c2cccc(C3=Nc4cc(C)c(C(F)(F)F)cc4NC(=O)C3)c2)cc(C)n1,IC50,[1],2 nM
same,IC50,[2],4 nM
Cc1cc2c(cc1C(F)(F)F)NC(=O)CC(c1cccc(-c3cccnc3)c1)=N2,IC50,[1],2 nM
same,IC50,[2],3 nM
same,IC50,[6],1800 nM
Cc1ccc(-c2cccc(C3=Nc4cc(C)c(C(F)(F)F)cc4NC(=O)C3)c2)cn1,IC50,[1],13 nM
same,IC50,[2],5 nM
Cc1cc2c(cc1C(F)(F)F)NC(=O)CC(c1cccc(-c3cncnc3)c1)=N2,IC50,[1],23 nM
same,IC50,[2],48 nM
CCOc1cc2c(cc1C(F)(F)F)NC(=O)CC(c1cccc(-c3ccnc(C)c3)c1)=N2,IC50,[1],6 nM
same,IC50,[2],8 nM
same,IC50,[4],3 nM
same,IC50,[3],15 nM
Cc1cc2c(cc1C(F)(F)F)NC(=O)CC(c1cccc(-c3ccnc(C(C)(C)O)c3)c1)=N2,IC50,[1],40 nM
same,IC50,[2],14 nM
Cc1cc(-c2cccc(C3=Nc4cc(Cl)c(Cl)cc4NC(=O)C3)c2)ccn1,IC50,[1],4 nM
same,IC50,[2],2 nM
same,IC50,[4],30 nM
same,IC50,[3],7 nM
CCOc1cc2c(cc1C(F)(F)F)NC(=O)CC(c1cccc(-c3ccncc3)c1)=N2,IC50,[1],4 nM
same,IC50,[2],10 nM
same,IC50,[5],8 nM
same,IC50,[4],6 nM
same,IC50,[3],38 nM
Cc1cc2c(cc1C(F)(F)F)NC(=O)CC(c1cccc(-c3ccncc3)c1)=N2,IC50,[1],4 nM
same,IC50,[2],11 nM
same,IC50,[6],200 nM
same,solubility thermodynamic,[7],5 µg/mL
Cc1cc2c(cc1C(F)(F)F)NC(=O)CC(c1cccc(-c3ccnc(CN(C)C)c3)c1)=N2,IC50,[1],274 nM
Cc1cc2c(cc1C(F)(F)F)NC(=O)CC(c1cccc(-c3ccc(N(C)C)nc3)c1)=N2,IC50,[1],86 nM
COCc1cc(-c2cccc(C3=Nc4cc(C)c(C(F)(F)F)cc4NC(=O)C3)c2)cc(C)n1,IC50,[1],8 nM
same,IC50,[2],5 nM
O=C1CC(c2cccc(-c3ccncc3)c2)=Nc2ccc(C(F)(F)F)cc2N1,IC50,[1],10 nM
same,IC50,[2],26 nM
same,IC50,[5],101 nM
same,IC50,[4],29 nM
same,IC50,[3],52 nM
